The record followed here is patent US8916557B2, “Substituted 4-Aryl-N-phenyl-1,3,5-triazin-2-amines” (Bayer Intellectual Property GmbH, priority 2011, dated 2014).

Experiment [1] deals with HeLa human cervical tumour cells. The experiment in a line: Proliferation assay (crystal violet), HeLa. The experiment is classed as cell-based. Particulars: read-out: Inhibition of HeLa cell proliferation.
Experiment [2] deals with T1, CDK9/CycT1 (Homo sapiens, UniProt P50750).
T1 construct: Recombinant full-length His-tagged human CDK9 and CycT1; His; purchased Invitrogen PV4131; host or cells: insect cells
Description: CDK9/CycT1 kinase assay (TR-FRET). The settings on record: Method 1, 10 μM ATP. The experiment is classed as biochemical. An excerpt:
1. CDK9/CycT1 Kinase Assay:
CDK9/CycT1-inhibitory activity of compounds of the present invention was quantified employing the CDK9/CycT1 TR-FRET assay as described in the following paragraphs:
Recombinant full-length His-tagged human CDK9 and CycT1, expressed in insect cells and purified by Ni-NTA affinity chromatography, were purchased from Invitrogen (Cat. No PV4131). As substrate for the kinase reaction biotinylated peptide biotin-Ttds-[…] (C-terminus in amid form) was used which can be purchased e.g. form the company JERINI Peptide Technologies (Berlin, Germany). For the assay 50 nl of a 100fold concentrated solution of the test compound in DMSO was pipetted into a black low volume 384well microtiter plate (Greiner Bio-One, Frickenhausen, Germany), 2 μl of a solution of CDK9/CycT1 in aqueous assay buffer [50 mM Tris/HCl pH 8.0, 10 mM MgCl2, 1.0 mM dithiothreitol, 0.1 mM sodium ortho-vanadate, 0.01% (v/v) Nonidet-P40 (Sigma)] were added and the mixture was incubated for 15 min at 22° C. to allow pre-binding of the test compounds to the enzyme before the start of the kinase reaction. Then the kinase reaction was started by the addition of 3 μl of a solution of adenosine-tri-phosphate (ATP, 16.7 μM=>final conc. in the 5 μl assay volume is 10 μM) and substrate (1.67 μM=>final conc. in the 5 μl assay volume is 1 μM) in assay buffer and the resulting mixture was incubated for a reaction time of 25 min at 22° C. The concentration of CDK9/CycT1 was adjusted depending of the activity of the enzyme lot and was chosen appropriate to have the assay in the linear range, typical concentrations were in the range of 1 μg/ml. The reaction was stopped by the addition of 5 μl of a solution of TR-FRET detection reagents (0.2 μM streptavidine-XL665 [Cisbio Bioassays, Codolet, France] and 1 nM anti-RB(pSer807/pSer811)-antibody from BD Pharmingen [#558389] and 1.2 nM LANCE EU-W1024 labeled anti-mouse IgG antibody [Perkin-Elmer, product no. AD0077]) in an aqueous EDTA-solution (100 mM EDTA, 0.2% (w/v) bovine serum albumin in 100 mM HEPES/NaOH pH 7.0).
(§1) The resulting mixture was incubated 1 h at 22° C. to allow the formation of complex between the phosphorylated biotinylated peptide and the detection reagents. Subsequently the amount of phosphorylated substrate was evaluated by measurement of the resonance energy transfer from the Eu-chelate to the streptavidine-XL. Therefore, the fluorescence emissions at 620 nm and 665 nm after excitation at 350 nm was measured in a HTRF reader, e.g. a Rubystar (BMG Labtechnologies, Offenburg, Germany) or a Viewlux (Perkin-Elmer). The ratio of the emissions at 665 nm and at 622 nm was taken as the measure for the amount of phosphorylated substrate.
(In general: Time-resolved FRET reads energy transfer from a long-lived donor to a nearby acceptor.)

Experiment [3] deals with T2, CDK2/CycE (Homo sapiens, UniProt P24941).
T2 construct: GST; purchased ProQinase GmbH (Freiburg, Germany); host or cells: insect cells (Sf9)
The experiment in a line: CDK2/CycE kinase assay (TR-FRET). The experiment is classed as biochemical. Particulars: Method 2, 10 μM ATP.
Source text: 2. CDK2/CycE Kinase Assay:
CDK2/CycE-inhibitory activity of compounds of the present invention was quantified employing the CDK2/CycE TR-FRET assay as described in the following paragraphs:
Recombinant fusion proteins of GST and human CDK2 and of GST and human CycE, expressed in insect cells (Sf9) and purified by Glutathion-Sepharose affinity chromatography, were purchased from ProQinase GmbH (Freiburg, Germany). As substrate for the kinase reaction biotinylated peptide biotin-Ttds-[…] (C-terminus in amid form) was used which can be purchased e.g. form the company JERINI Peptide Technologies (Berlin, Germany).
For the assay 50 nl of a 100fold concentrated solution of the test compound in DMSO was pipetted into a black low volume 384well microtiter plate (Greiner Bio-One, Frickenhausen, Germany), 2 μl of a solution of CDK2/CycE in aqueous assay buffer [50 mM Tris/HCl pH 8.0, 10 mM MgCl2, 1.0 mM dithiothreitol, 0.1 mM sodium ortho-vanadate, 0.01% (v/v) Nonidet-P40 (Sigma)] were added and the mixture was incubated for […] at 22° C. to allow pre-binding of the test compounds to the enzyme before the start of the kinase reaction. Then the kinase reaction was started by the addition of 3 μl of a solution of adenosine-tri-phosphate (ATP, 16.7 μM=>final conc. in the 5 it assay volume is 10 μM) and substrate (1.25 μM=>final conc. in the 5 it assay volume is 0.75 μM) in assay buffer and the resulting mixture was incubated for a reaction time of […] at 22° C. The concentration of CDK2/CycE was adjusted depending of the activity of the enzyme lot and was chosen appropriate to have the assay in the linear range, typical concentrations were in the range of 130 ng/ml. The reaction was stopped by the addition of 5 it of a solution of TR-FRET detection reagents (0.2 μM streptavidine-XL665 [Cisbio Bioassays, Codolet, France] and 1 nM anti-RB(pSer807/pSer811)-antibody from BD Pharmingen [#558389] and 1.2 nM LANCE EU-W1024 labeled anti-mouse IgG antibody [Perkin-Elmer, product no. AD0077]) in an aqueous EDTA-solution (100 mM EDTA, 0.2% (w/v) bovine serum albumin in 100 mM HEPES/NaOH pH 7.0).
as §1, with “TR-FRET” for “HTRF”

Structures are written as SMILES. pIC50: −log10 of the molar value.

T1 sequence (P50750 whole entry): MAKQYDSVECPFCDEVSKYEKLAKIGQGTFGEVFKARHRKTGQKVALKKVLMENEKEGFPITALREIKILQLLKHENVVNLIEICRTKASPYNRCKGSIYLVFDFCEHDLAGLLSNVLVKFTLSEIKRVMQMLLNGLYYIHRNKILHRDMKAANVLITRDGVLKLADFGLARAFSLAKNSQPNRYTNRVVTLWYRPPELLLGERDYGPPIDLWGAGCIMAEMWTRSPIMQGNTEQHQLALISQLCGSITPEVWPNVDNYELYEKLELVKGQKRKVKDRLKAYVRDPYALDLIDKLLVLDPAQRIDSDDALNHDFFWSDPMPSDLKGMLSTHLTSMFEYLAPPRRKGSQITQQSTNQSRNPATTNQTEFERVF
T1 sequence (O60563 whole entry partner): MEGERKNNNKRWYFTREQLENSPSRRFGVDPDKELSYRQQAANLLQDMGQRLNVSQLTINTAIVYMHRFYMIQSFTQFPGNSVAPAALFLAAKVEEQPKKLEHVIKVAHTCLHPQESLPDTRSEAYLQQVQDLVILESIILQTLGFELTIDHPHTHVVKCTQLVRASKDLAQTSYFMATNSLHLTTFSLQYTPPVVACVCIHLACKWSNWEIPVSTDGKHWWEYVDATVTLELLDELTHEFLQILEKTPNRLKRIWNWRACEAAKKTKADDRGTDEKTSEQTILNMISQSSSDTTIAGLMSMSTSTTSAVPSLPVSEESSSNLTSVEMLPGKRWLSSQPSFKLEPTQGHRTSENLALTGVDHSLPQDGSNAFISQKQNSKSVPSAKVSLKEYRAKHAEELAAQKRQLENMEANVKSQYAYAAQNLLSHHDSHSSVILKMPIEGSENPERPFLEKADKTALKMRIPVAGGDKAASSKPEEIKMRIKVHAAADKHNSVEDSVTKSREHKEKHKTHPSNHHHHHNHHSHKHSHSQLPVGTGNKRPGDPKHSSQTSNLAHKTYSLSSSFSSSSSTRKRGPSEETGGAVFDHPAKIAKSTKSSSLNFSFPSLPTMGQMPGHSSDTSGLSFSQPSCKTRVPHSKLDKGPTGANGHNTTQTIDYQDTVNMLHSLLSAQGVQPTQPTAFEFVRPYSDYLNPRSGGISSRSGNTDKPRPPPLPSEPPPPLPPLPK

For `CS(=O)(=O)Cc1cccc(Nc2ncnc(-c3ccc(F)cc3OCCC3CCCC3)n2)c1` [Example 53, 4-[2-(2-Cyclopentylethoxy)-4-fluorophenyl]-N-{3-[(methylsulfonyl)methyl]phenyl}-1,3,5-triazin-2-amine], the pIC50 is 5.89 in experiment [1], 7.80 in experiment [2] and 6.02 in experiment [3].

`CC(C)S(=O)(=O)Cc1cccc(Nc2ncnc(-c3ccccc3OCc3cccc(Cl)c3)n2)c1` [Example 34, 4-{2-[(3-Chlorobenzyl)oxy]phenyl}-N-{3-[(propan-2-ylsulfonyl)methyl]phenyl}-1,3,5-triazin-2-amine]: the pIC50 was 5.92 in experiment [1], 8.00 in experiment [2] and 6.10 in experiment [3].

For `CS(=O)(=O)Cc1cccc(Nc2ncnc(-c3ccc(F)cc3OCc3ccc(Cl)cc3)n2)c1` [Example 76, 4-{2-[(4-Chlorobenzyl)oxy]-4-fluorophenyl}-N-{3-[(methylsulfonyl)methyl]phenyl}-1,3,5-triazin-2-amine], the pIC50 in experiment [1] was 6.00; in experiment [2] it was 8.22; in experiment [3], 6.15.

In the case of `CC(C)CCOc1cc(F)ccc1-c1ncnc(Nc2cccc(CS(C)(=O)=O)c2)n1` [Example 52, 4-[4-Fluoro-2-(3-methylbutoxy)phenyl]-N-{3-[(methylsulfonyl)methyl]phenyl}-1,3,5-triazin-2-amine], the pIC50 in experiment [1] is 5.92; in experiment [2], 7.80; in experiment [3] it was 5.40.

As for `CCCCCOc1cc(F)ccc1-c1ncnc(Nc2cccc(CS(C)(=O)=O)c2)n1` [Example 45, 4-[4-Fluoro-2-(pentyloxy)phenyl]-N-{3-[(methylsulfonyl)-methyl]phenyl}-1,3,5-triazin-2-amine], the pIC50 in experiment [1] is 6.00; in experiment [2], 8.40; in experiment [3] it was 6.00.

In the case of `CS(=O)(=O)Cc1cccc(Nc2ncnc(-c3ccc(F)cc3OCc3ccccc3F)n2)c1` [Example 71, 4-{4-Fluoro-2-[(2-fluorobenzyl)oxy]phenyl}-N-{3-[(methylsulfonyl)-methyl]phenyl}-1,3,5-triazin-2-amine], the pIC50 in experiment [1] was 5.93; in experiment [2] it was 7.92; in experiment [3], 5.66.

With `COCCOc1cc(F)ccc1-c1ncnc(Nc2cccc(CS(C)(=O)=O)c2)n1` [Example 50, 4-[4-Fluoro-2-(2-methoxyethoxy)phenyl]-N-{3-[(methylsulfonyl)methyl]-phenyl}-1,3,5-triazin-2-amine], the pIC50 in experiment [1] is 5.54; in experiment [2], 7.42; in experiment [3] it was 6.31.

With `CS(=O)(=O)Cc1cccc(Nc2ncnc(-c3ccc(F)cc3OC3CC3)n2)c1` [Example 41, 4-[2-(Cyclopropyloxy)-4-fluorophenyl]-N-{3-[(methylsulfonyl)methyl]phenyl}-1,3,5-triazin-2-amine], the pIC50 is 6.05 in experiment [1], 7.54 in experiment [2] and 6.00 in experiment [3].

On to `CS(=O)(=O)Cc1cccc(Nc2ncnc(-c3ccc(F)cc3OCC3CCCCC3)n2)c1` [Example 57, 4-[2-(Cyclohexylmethoxy)-4-fluorophenyl]-N-{3-[(methylsulfonyl)methyl]phenyl}-1,3,5-triazin-2-amine], for which the pIC50 in experiment [1] was 5.96; in experiment [2], 8.15; in experiment [3] it was 5.62.

In the case of `CS(=O)(=O)Cc1cccc(Nc2ncnc(-c3ccc(F)cc3OCC(F)F)n2)c1` [Example 60, 4-[2-(2,2-Difluoroethoxy)-4-fluorophenyl]-N-{3-[(methylsulfonyl)methyl]phenyl}-1,3,5-triazin-2-amine], the pIC50 in experiment [1] is 5.96; in experiment [2] it was 7.66; in experiment [3] it was 5.92.

For `COc1cc(F)ccc1-c1ncnc(Nc2cccc(CS(=O)(=O)CCO)c2)n1` [Example 14, 2-[(3-{[4-(4-Fluoro-2-methoxyphenyl)-1,3,5-triazin-2-yl]amino}benzyl)sulfonyl]ethanol], the pIC50 in experiment [1] is 6.22; in experiment [2] it was 7.92; in experiment [3] it was 6.21.

With `CS(=O)(=O)Cc1cccc(Nc2ncnc(-c3ccc(F)cc3OCc3cccc(C(F)(F)F)c3)n2)c1` [Example 69, 4-(4-Fluoro-2-{[3-(trifluoromethyl)benzyl]oxy}phenyl)-N-{3-[(methylsulfonyl)-methyl]phenyl}-1,3,5-triazin-2-amine], the figures for the pIC50 in experiment [1], in experiment [2] and in experiment [3] were 5.89, 8.40 and 5.89, respectively.

Regarding `COc1cc(F)ccc1-c1ncnc(Nc2cccc(CS(=O)(=O)C(C)C)c2)n1` [Example 24, 4-(4-Fluoro-2-methoxyphenyl)-N-{3-[(propan-2-ylsulfonyl)methyl]phenyl}-1,3,5-triazin-2-amine], the pIC50 in experiment [1] was 6.00; in experiment [2], 8.15; in experiment [3], 6.17.

Regarding `CCCOc1cc(F)ccc1-c1ncnc(Nc2cccc(CS(C)(=O)=O)c2)n1` [Example 43, 4-(4-Fluoro-2-propoxyphenyl)-N-{3-[(methylsulfonyl)-methyl]phenyl}-1,3,5-triazin-2-amine], the values for the pIC50 in experiment [1], in experiment [2] and in experiment [3] were 5.96, 7.92 and 6.07, respectively.

Consider `COc1cnccc1-c1ncnc(Nc2cccc(CS(C)(=O)=O)c2)n1` [Example 8, 4-(3-Methoxypyridin-4-yl)-N-{3-[(methylsulfonyl)methyl]phenyl}-1,3,5-triazin-2-amine], for which the figures for the pIC50 in experiment [1], in experiment [2] and in experiment [3] were 5.82, 7.43 and 5.33, respectively.

As for `COCCS(=O)(=O)Cc1cccc(Nc2ncnc(-c3ccc(F)cc3OC)n2)c1` [Example 23, 4-(4-Fluoro-2-methoxyphenyl)-N-(3-{[(2-methoxyethyl)sulfonyl]methyl}phenyl)-1,3,5-triazin-2-amine], the pIC50 is 6.03 in experiment [1], 7.92 in experiment [2] and 5.89 in experiment [3].
